Data published in ChEMBL document CHEMBL3832025, “DailyMed|setid=d3417226-1f42-40cd-82ac-bc31ddf79b97 | OFLOXACIN - ofloxacin tablet, film coated|PD-Rx Pharmaceuticals, Inc”.
Several values for one entry are separate records, joined by “and”; a condition that tells them apart may be missing. Identical values can stand only once.

Legend:
Type in all cases: ADME, organism-based
Homo sapiens [1] = test: (§1) Pharmcokinetic parameters for Ofloxacin following single oral dose administration of Ofloxacin to healthy male volunteers, body mass 70 to 80 kg.; parameters: dose 300 mg, dose 200 mg, dose 400 mg, route oral; details: in vivo, po, dosed compound id 33, dosed compound name OFLOXACIN, gender male, regimen Single dose, tissue Serum
[2] = as §1; parameters: dose 300 mg, dose 200 mg, dose 400 mg, route oral; details: human, in vivo, dosed compound id 33, dosed compound name OFLOXACIN, regimen Single dose
Homo sapiens [3] = test: (§2) Steady-state pharmacokinetic parameters for Ofloxacin following multiple oral and intravenous (IV) doses of Ofloxacin to healthy 70 to 80 kg male volunteers.; parameters: dose 200 mg, dose 400 mg, dose 300 mg, route oral, route iv; details: in vivo, dosed compound id 33, dosed compound name OFLOXACIN, gender male, regimen Multiple dose, tissue Serum
[4] = as §2; parameters: dose 200 mg, dose 400 mg, dose 300 mg, route oral, route iv; details: human, in vivo, dosed compound id 33, dosed compound name OFLOXACIN, regimen Multiple dose; for AUC: gender male, tissue Serum
[5] = male, route oral, tissue Plasma

Cmax (Homo sapiens [1]): 2400 ng/mL and 2900 ng/mL | Cmax ([2]; po, gender male, tissue Serum): 1500 ng/mL | Tmax [2, 5]: 1 to 2 h | bioavailability [2, 5]: 98% | AUC(0 to 12) ss (Homo sapiens [3]; study dosing duration 60 minutes): 43500 ng·h/mL | Cmax ss (Homo sapiens [3]; po): 2200 ng/mL and 3600 ng/mL and 4600 ng/mL | AUC ([4]; read-out: AUC(0 to 12) ss): 41200 ng·h/mL | AUC ([4]; read-out: AUC(0 to inf) ss): 61000 ng·h/mL | half-life ([4]; male, route oral, tissue Plasma, read-out: t1/2 ss): 4 to 5 h
Compound: CC1COc2c(N3CCN(C)CC3)c(F)cc3c(=O)c(C(=O)O)cn1c23 (stereo not given) [OFLOXACIN]
AUC(0 to inf) (Homo sapiens [1]): 14100 ng·h/mL and 21200 ng·h/mL and 31400 ng·h/mL
